Measurements published in article PMC9412555, “Benzothiazole Derivatives Endowed with Antiproliferative Activity in Paraganglioma and Pancreatic Cancer Cells: Structure–Activity Relationship Studies and Target Prediction Analysis” (Pharmaceuticals, 2022).

Columns and labels:
AsPC-1 = experiment: MTT cell viability assay, AsPC-1; format: cell-based; settings: for Inhibition Rate of Cell Viability / IC50: 72 h; for IC50: AsPC-1 pancreatic cancer, MTT; for Selectivity Index (SI): IC50 in normal (HFF-1) fibroblast cells/IC50 in AsPC-1
Protocol: (§1) Compounds 4a–p were submitted to a preliminary MTT assay at a one-point screening concentration of 75 μM for 72 h, including 2b as a reference compound (Figure 3). […] The presence of the electron-donating methoxy group decreased the activity of 2b, in both the para and meta positions. […] Specifically, these compounds, namely 4d, 4e, 4f, 4h, 4i, 4j, 4k, 4l, and 4m, were tested at concentrations of 3, 6, 12 and 24 µM for 72 h. In addition, the nine compounds, together with 2b, were tested against human fibroblasts HFF-1, in order to evaluate their selectivity against tumor cells, as compared to normal cells. Effects on cancer or normal cell viability were extrapolated from concentration–response curves and are expressed as IC50 values in Table 2.
(§2) Pancreatic cancer (AsPC-1, BxPC-3, and Capan-2), paraganglioma (PTJ86i and PTJ64i) and normal fibroblast (HFF-1) cell lines were cultured as previously described. All compounds were dissolved in DMSO (stock solutions) and then diluted in culture media to the final working concentrations. In this way, the solutions were completely clear and devoid of any undissolved material by microscopic inspection. […] The effects of compounds 4a-p and 2b on cancer cell viability were tested by an MTT assay (Sigma-Aldrich, St. Louis, MO, USA), as described by Florio et al.. In the initial screening all compounds were tested at a one-point screening concentration of 75 μM for 72 h (five replica wells per each condition). […] For combined treatments, the experimental design was made according to the Chou–Talalay method for drug combination studies, as previously described.
(§3) IC50 values were extrapolated from concentration–response curves and calculated using the CompuSyn software. […] Based on this analysis, a CI < 1 indicates synergism, a CI = 1 indicates additive effects and a CI > 1 indicates antagonism. SI values were calculated as previously described. Comparisons of mean values were performed using an unpaired Student’s t-test. For multiple comparisons, a one-way ANOVA followed by Dunnett’s test were employed. A p-value < 0.05 was estimated as statistically significant.

HFF-1 = experiment: MTT cell viability assay, normal fibroblasts HFF-1; format: cell-based, human; settings: 72 h; for IC50: HFF-1 normal cells, MTT
Protocol: All compounds were dissolved in DMSO (stock solutions) and then diluted in culture media to the final working concentrations. […] The effects of compounds 4a-p and 2b on cancer cell viability were tested by an MTT assay (Sigma-Aldrich, St. Louis, MO, USA), as described by Florio et al. [17]. In the initial screening all compounds were tested at a one-point screening concentration of 75 μM for 72 h (five replica wells per each condition).
IC50 values were extrapolated from concentration–response curves and calculated using the CompuSyn software [45]. […] SI values were calculated as previously described [46]. Comparisons of mean values were performed using an unpaired Student’s t-test. For multiple comparisons, a one-way ANOVA followed by Dunnett’s test were employed. A p-value < 0.05 was estimated as statistically significant.

Capan-2 = experiment: MTT cell viability assay, Capan-2; format: cell-based; settings: for Inhibition Rate of Cell Viability / IC50: 72 h; for IC50: Capan-2 pancreatic cancer, MTT; for Selectivity Index (SI): IC50 in normal (HFF-1) fibroblast cells/IC50 in Capan-2
Protocol: as §1, §2, §3

PTJ64i = experiment: MTT cell viability assay, PTJ64i; format: cell-based; settings: for Selectivity Index (SI): IC50 in normal (HFF-1) fibroblast cells/IC50 in PTJ64i; for IC50: PTJ64i paraganglioma, MTT, 72 h
Protocol: as §1, §2, §3

[1] = test system: pancreatic (AsPC-1, BxPC-3, and Capan-2) and paraganglioma (PTJ64i and PTJ86i) cancer cell lines; experiment: One-point MTT screening at 75 µM in cancer cell lines; format: cell-based; settings: one-point screening concentration of 75 μM for 72 h, five cancer cell lines
Protocol: as §1, §2
Figure 3 Screening of the effects of novel derivatives (4a–p) on the viability of pancreatic (AsPC-1, BxPC-3, and Capan-2) and paraganglioma (PTJ64i and PTJ86i) cancer cell lines. The lead compound 2b was included as a reference and the histograms show the relative decrease of cancer cell viability observed after treatments, as compared to 2b. Cell viability was assessed by an MTT assay using compounds at 75 µM for 72 h. Data shown are the means ± SD of duplicate experiments with quintuplicate determinations and are calculated as ratios relative to the reference compound 2b (dashed line).

PTJ86i = experiment: MTT cell viability assay, PTJ86i; format: cell-based; settings: for Selectivity Index (SI): IC50 in normal (HFF-1) fibroblast cells/IC50 in PTJ86i; for IC50: PTJ86i paraganglioma, MTT, 72 h
Protocol: as §1, §2, §3

BxPC-3 = experiment: MTT cell viability assay, BxPC-3; format: cell-based; settings: for Inhibition Rate of Cell Viability / IC50: 72 h; for IC50: BxPC-3 pancreatic cancer, MTT; for Selectivity Index (SI): IC50 in normal (HFF-1) fibroblast cells/IC50 in BxPC-3
Protocol: as §1, §2, §3

With `CC(=O)Nc1cccc(NC(=O)C(Sc2nc3cc(Cl)ccc3s2)c2ccccc2)c1` (centres unmarked) [4l, N-(3-Acetamidophenyl)-2-[(5-chlorobenzo[d]thiazol-2-yl)thio]-2-phenylacetamide] the “Inhibition Rate of Cell Viability” value (AsPC-1; AsPC-1, 4l 0.5 µM) was 13.40%, the “Inhibition Rate of Cell Viability” value (AsPC-1; AsPC-1, 4l 5 µM) was 18.87% and the “Inhibition Rate of Cell Viability” value (AsPC-1; AsPC-1, 4l 50 µM) was 42.97%. For the same compound, the IC50 (AsPC-1; Homo sapiens, ASPC1) was 14.8 µM, the “Selectivity Index (SI)” value (AsPC-1) was 4.54 and the “Inhibition Rate of Cell Viability” value (HFF-1; HFF-1, 4l 0.5 µM) was 0.00%. The “Inhibition Rate of Cell Viability” value (HFF-1; HFF-1, 4l 5 µM) was 1.00%, the “Inhibition Rate of Cell Viability” value (HFF-1; HFF-1, 4l 50 µM) was 17.69% and the IC50 (HFF-1; Homo sapiens) was 67.1 µM. The “Inhibition Rate of Cell Viability” value (Capan-2; Capan-2, 4l 0.5 µM) was 9.34%, the “Inhibition Rate of Cell Viability” value (Capan-2; Capan-2, 4l 5 µM) was 30.25% and the “Inhibition Rate of Cell Viability” value (Capan-2; Capan-2, 4l 50 µM) was 43.30%. For the same compound, the IC50 (Capan-2; Homo sapiens) was 33.8 µM, the “Selectivity Index (SI)” value (Capan-2) was 1.99 and the “Selectivity Index (SI)” value (PTJ64i) was 6.62. The IC50 (PTJ64i) was 10.1 µM, the “effect on cancer cell viability, potency compared with 2b” value (“effect … compared with 2b” below) [1] was “greater antiproliferative activity than 2b” and the “Selectivity Index (SI)” value (PTJ86i) was 3.37. For the same compound, the IC50 (PTJ86i) was 19.9 µM, the “Inhibition Rate of Cell Viability” value (BxPC-3; BxPC-3, 4l 0.5 µM) was 6.00% and the “Inhibition Rate of Cell Viability” value (BxPC-3; BxPC-3, 4l 5 µM) was 9.54%. The “Inhibition Rate of Cell Viability” value (BxPC-3; BxPC-3, 4l 50 µM) was 70.50%, the IC50 (BxPC-3; Homo sapiens) was 13.7 µM and the “Selectivity Index (SI)” value (BxPC-3) was 4.91.
For `O=C(Nc1cc([N+](=O)[O-])ccc1Br)C(Sc1nc2cc(Cl)ccc2s1)c1ccccc1` (centres unmarked) [4n, N-(2-Bromo-5-nitrophenyl)-2-[(5-chlorobenzo[d]thiazol-2-yl)thio]-2-phenyl Acetamide], the “effect … compared with 2b” value [1] was “exception”.
In the case of `O=C(Nc1ccc(C(F)(F)F)cc1)C(Sc1nc2cc(Cl)ccc2s1)c1ccccc1` (centres unmarked) [4d, 2-[(5-Chlorobenzo[d]thiazol-2-yl)thio]-2-phenyl-N-[4-(trifluoromethyl)phenyl] Acetamide], the IC50 (AsPC-1) is reported as 7.66 µM, the “Selectivity Index (SI)” value (AsPC-1) is reported as 1.20 and the IC50 (HFF-1) is reported as 9.23 µM. For the same compound, the IC50 (Capan-2) was 8.97 µM, the “Selectivity Index (SI)” value (Capan-2) was 1.03 and the “Selectivity Index (SI)” value (PTJ64i) was 1.36. For the same compound, the IC50 (PTJ64i) was 6.79 µM, the “effect … compared with 2b” value [1] was “greater antiproliferative activity than 2b” and the “Selectivity Index (SI)” value (PTJ86i) was 0.74. For the same compound, the IC50 (PTJ86i) was 12.4 µM, the IC50 (BxPC-3) was 3.99 µM and the “Selectivity Index (SI)” value (BxPC-3) was 2.31.
With `O=C(Nc1ccc(Cl)cc1)C(Sc1nc2cc(Cl)ccc2s1)c1ccccc1` (centres unmarked) [4b, 2-[(5-Chlorobenzo[d]thiazol-2-yl)thio]-N-(4-chlorophenyl)-2-phenylacetamide] the melting point was 178 to 180 °C.
`O=C(Nc1cccc(Cl)c1)C(Sc1nc2cc(Cl)ccc2s1)c1ccccc1` (centres unmarked) [4h, 2-[(5-Chlorobenzo[d]thiazol-2-yl)thio]-N-(3-chlorophenyl)-2-phenylacetamide] gave an IC50 (AsPC-1; Homo sapiens, ASPC1) of 12.2 µM, an IC50 (HFF-1; Homo sapiens) of 11.6 µM and an IC50 (Capan-2; Homo sapiens) of 17.7 µM. The IC50 (PTJ64i) was 7.27 µM, the “effect … compared with 2b” value [1] was “greater antiproliferative activity than 2b” and the IC50 (PTJ86i) was 16.6 µM. The IC50 (BxPC-3; Homo sapiens) was 12 µM.
For `COc1ccc(NC(=O)C(Sc2nc3cc(Cl)ccc3s2)c2ccccc2)cc1` (centres unmarked) [4a, 2-[(5-Chlorobenzo[d]thiazol-2-yl)thio]-N-(4-methoxyphenyl)-2-phenylacetamide], the melting point was 190 °C (dec.).
For `Nc1ccn([C@@H]2O[C@H](CO)[C@@H](O)C2(F)F)c(=O)n1` [GEM, gemcitabine, reference compound], the “Inhibition Rate of Cell Viability” value (AsPC-1; AsPC-1, GEM 0.1 µM) was 54.21%, the “Inhibition Rate of Cell Viability” value (AsPC-1; AsPC-1, GEM 1 µM) was 63.25% and the “Inhibition Rate of Cell Viability” value (AsPC-1; AsPC-1, GEM 10 µM) was 64.63%. The “Inhibition Rate of Cell Viability” value (Capan-2; Capan-2, GEM 0.1 µM) was 26.87%, the “Inhibition Rate of Cell Viability” value (Capan-2; Capan-2, GEM 1 µM) was 27.22% and the “Inhibition Rate of Cell Viability” value (Capan-2; Capan-2, GEM 10 µM) was 38.65%. The “Inhibition Rate of Cell Viability” value (BxPC-3; BxPC-3, GEM 0.1 µM) was 65.02%, the “Inhibition Rate of Cell Viability” value (BxPC-3; BxPC-3, GEM 1 µM) was 64.65% and the “Inhibition Rate of Cell Viability” value (BxPC-3; BxPC-3, GEM 10 µM) was 62.50%.
`O=C(Nc1cccc(C(F)(F)F)c1)C(Sc1nc2cc(Cl)ccc2s1)c1ccccc1` (centres unmarked) [4j, 2-[(5-Chlorobenzo[d]thiazol-2-yl)thio]-2-phenyl-N-[3-(trifluoromethyl)phenyl]acetamide] gave an IC50 (AsPC-1; Homo sapiens, ASPC1) of 9.53 µM, an IC50 (HFF-1; Homo sapiens) of 18.1 µM and an IC50 (Capan-2; Homo sapiens) of 24.2 µM. The IC50 (PTJ64i) was 11.2 µM, the “effect … compared with 2b” value [1] was “greater antiproliferative activity than 2b” and the IC50 (PTJ86i) was 17.5 µM. For the same compound, the IC50 (BxPC-3; Homo sapiens) was 14 µM.
For `COc1cccc(NC(=O)C(Sc2nc3cc(Cl)ccc3s2)c2ccccc2)c1` (centres unmarked) [4g, 2-[(5-Chlorobenzo[d]thiazol-2-yl)thio]-N-(3-methoxyphenyl)-2-phenylacetamide], the “effect … compared with 2b” value [1] was “exception” and the melting point was 160 to 162 °C.
For `O=C(Nc1cc(C(F)(F)F)ccc1Br)C(Sc1nc2cc(Cl)ccc2s1)c1ccccc1` (centres unmarked) [4p, N-[2-Bromo-5-(trifluoromethyl)phenyl]-2-[(5-chlorobenzo[d]thiazol-2-yl)thio]-2-phenylacetamide], the “effect … compared with 2b” value [1] was “exception” and the melting point was 157 to 159 °C.
For `O=C(Nc1ccc(C(F)(F)F)cc1Br)C(Sc1nc2cc(Cl)ccc2s1)c1ccccc1` (centres unmarked) [4o, N-[2-Bromo-4-(trifluoromethyl)phenyl]-2-[(5-chlorobenzo[d]thiazol-2-yl)thio]-2-phenylacetamide], the “effect … compared with 2b” value [1] was “exception” and the melting point was 179 to 180 °C.
For `O=C(Nc1ccc(Cl)c(Cl)c1)C(Sc1nc2cc(Cl)ccc2s1)c1ccccc1` (centres unmarked) [4m, 2-[(5-Chlorobenzo[d]thiazol-2-yl)thio]-N-(3,4-dichlorophenyl)-2-phenyl Acetamide], the IC50 (AsPC-1) was 8.49 µM, the “Selectivity Index (SI)” value (AsPC-1) was 1.22 and the IC50 (HFF-1) was 10.3 µM. For the same compound, the IC50 (Capan-2) was 13.3 µM, the “Selectivity Index (SI)” value (Capan-2) was 0.77 and the “Selectivity Index (SI)” value (PTJ64i) was 1.32. For the same compound, the IC50 (PTJ64i) was 7.84 µM, the “effect … compared with 2b” value [1] was “greater antiproliferative activity than 2b” and the “Selectivity Index (SI)” value (PTJ86i) was 0.52. For the same compound, the IC50 (PTJ86i) was 19.9 µM, the IC50 (BxPC-3) was 9.81 µM and the “Selectivity Index (SI)” value (BxPC-3) was 1.05.
